Assay results: the CheMixHub viscosity set
Values joined by “and” are separate entries in the source; they are usually repeats but may differ in a detail not shown here. Equal entries are not always repeated.

Assay: xn = mol fraction of the nth substance listed

COCCO + O
viscosity
Settings | 101 kPa | 101.33 kPa
298.15 K, x1 = 0.01 | 0.9988 mPa·s | –
298.15 K, x1 = 0.025 | 1.169 mPa·s | –
298.15 K, x1 = 0.05 | 1.464 mPa·s | –
298.15 K, x1 = 0.056 | 1.516 mPa·s | –
298.15 K, x1 = 0.075 | 1.755 mPa·s | –
298.15 K, x1 = 0.0834 | – | 1.894 mPa·s
298.15 K, x1 = 0.1 | 2.023 mPa·s | –
298.15 K, x1 = 0.136 | 2.365 mPa·s | –
298.15 K, x1 = 0.1366 | – | 2.365 mPa·s
298.15 K, x1 = 0.15 | 2.475 mPa·s | 2.442 mPa·s
298.15 K, x1 = 0.2 | 2.766 mPa·s | –
298.15 K, x1 = 0.2131 | – | 2.768 mPa·s
298.15 K, x1 = 0.25 | 2.908 mPa·s and 2.871 mPa·s and 2.871 mPa·s | –
298.15 K, x1 = 0.2601 | – | 2.876 mPa·s
298.15 K, x1 = 0.262 | 2.885 mPa·s | –
298.15 K, x1 = 0.3 | 2.942 mPa·s | –
298.15 K, x1 = 0.3005 | – | 2.904 mPa·s
298.15 K, x1 = 0.3558 | – | 2.886 mPa·s
298.15 K, x1 = 0.4 | 2.833 mPa·s | –
298.15 K, x1 = 0.4352 | – | 2.751 mPa·s
298.15 K, x1 = 0.48 | 2.582 mPa·s and 2.582 mPa·s | –
298.15 K, x1 = 0.486 | 2.575 mPa·s | –
298.15 K, x1 = 0.5 | 2.606 mPa·s | –
298.15 K, x1 = 0.5001 | – | 2.616 mPa·s
298.15 K, x1 = 0.5219 | – | 2.571 mPa·s
298.15 K, x1 = 0.6 | 2.35 mPa·s | –
298.15 K, x1 = 0.6161 | – | 2.367 mPa·s
298.15 K, x1 = 0.6806 | – | 2.232 mPa·s
298.15 K, x1 = 0.7 | 2.102 mPa·s | –
298.15 K, x1 = 0.72 | 2.115 mPa·s and 2.115 mPa·s | –
298.15 K, x1 = 0.7514 | – | 2.076 mPa·s
298.15 K, x1 = 0.8 | 1.874 mPa·s | –
298.15 K, x1 = 0.8181 | – | 1.93 mPa·s
298.15 K, x1 = 0.85 | 1.772 mPa·s | –
298.15 K, x1 = 0.8844 | – | 1.786 mPa·s
298.15 K, x1 = 0.9 | 1.681 mPa·s | –
298.15 K, x1 = 0.95 | 1.606 mPa·s | –
298.15 K, x2 = 0.1049 | – | 1.671 mPa·s
298.15 K, x2 = 0.2062 | – | 1.86 mPa·s
298.15 K, x2 = 0.3055 | – | 2.064 mPa·s
298.15 K, x2 = 0.3977 | – | 2.288 mPa·s
298.15 K, x2 = 0.4976 | – | 2.538 mPa·s
298.15 K, x2 = 0.6002 | – | 2.755 mPa·s
298.15 K, x2 = 0.6964 | – | 2.866 mPa·s
298.15 K, x2 = 0.8004 | – | 2.68 mPa·s
298.15 K, x2 = 0.9005 | – | 1.989 mPa·s
308.15 K, x1 = 0.0461 | – | 1.143 mPa·s
308.15 K, x1 = 0.0623 | – | 1.242 mPa·s
308.15 K, x1 = 0.0881 | – | 1.52 mPa·s
308.15 K, x1 = 0.1239 | – | 1.829 mPa·s
308.15 K, x1 = 0.16 | – | 1.803 mPa·s
308.15 K, x1 = 0.1871 | – | 2.124 mPa·s
308.15 K, x1 = 0.2131 | – | 2.067 mPa·s
308.15 K, x1 = 0.2442 | – | 2.284 mPa·s
308.15 K, x1 = 0.25 | 2.142 mPa·s and 2.142 mPa·s | –
308.15 K, x1 = 0.2601 | – | 2.149 mPa·s
308.15 K, x1 = 0.2938 | – | 2.341 mPa·s
308.15 K, x1 = 0.3005 | – | 2.164 mPa·s
308.15 K, x1 = 0.326 | – | 2.342 mPa·s
308.15 K, x1 = 0.3558 | – | 2.15 mPa·s
308.15 K, x1 = 0.3709 | – | 2.319 mPa·s
308.15 K, x1 = 0.4014 | – | 2.284 mPa·s
308.15 K, x1 = 0.4352 | – | 2.077 mPa·s
308.15 K, x1 = 0.4504 | – | 2.217 mPa·s
308.15 K, x1 = 0.5001 | – | 2.001 mPa·s
308.15 K, x1 = 0.5219 | – | 1.96 mPa·s
308.15 K, x1 = 0.6161 | – | 1.818 mPa·s
308.15 K, x1 = 0.6806 | – | 1.726 mPa·s
308.15 K, x1 = 0.72 | 1.68 mPa·s and 1.68 mPa·s | –
308.15 K, x1 = 0.7514 | – | 1.624 mPa·s
308.15 K, x1 = 0.8844 | – | 1.443 mPa·s
308.15 K, x2 = 0.1034 | – | 1.452 mPa·s
308.15 K, x2 = 0.1923 | – | 1.477 mPa·s
308.15 K, x2 = 0.2978 | – | 1.629 mPa·s
308.15 K, x2 = 0.3944 | – | 1.768 mPa·s
308.15 K, x2 = 0.5527 | – | 1.918 mPa·s
308.15 K, x2 = 0.7415 | – | 2.002 mPa·s
308.15 K, x2 = 0.8372 | – | 1.768 mPa·s
308.15 K, x2 = 0.956 | – | 1.085 mPa·s
313.15 K, x1 = 0.25 | 1.842 mPa·s and 1.842 mPa·s | –
313.15 K, x1 = 0.48 | 1.805 mPa·s and 1.805 mPa·s | –
313.15 K, x1 = 0.72 | 1.517 mPa·s and 1.517 mPa·s | –
318.15 K, x1 = 0.0251 | – | 0.737 mPa·s
318.15 K, x1 = 0.0623 | – | 0.95 mPa·s
318.15 K, x1 = 0.15 | – | 1.325 mPa·s
318.15 K, x1 = 0.2131 | – | 1.505 mPa·s
318.15 K, x1 = 0.25 | 1.588 mPa·s and 1.588 mPa·s | –
318.15 K, x1 = 0.2601 | – | 1.585 mPa·s
318.15 K, x1 = 0.3005 | – | 1.626 mPa·s
318.15 K, x1 = 0.3558 | – | 1.655 mPa·s
318.15 K, x1 = 0.4352 | – | 1.653 mPa·s
318.15 K, x1 = 0.48 | 1.627 mPa·s and 1.627 mPa·s | –
318.15 K, x1 = 0.5001 | – | 1.615 mPa·s
318.15 K, x1 = 0.5219 | – | 1.602 mPa·s
318.15 K, x1 = 0.6161 | – | 1.513 mPa·s
318.15 K, x1 = 0.6806 | – | 1.444 mPa·s
318.15 K, x1 = 0.72 | 1.389 mPa·s and 1.389 mPa·s | –
318.15 K, x1 = 0.7514 | – | 1.36 mPa·s
318.15 K, x1 = 0.8181 | – | 1.281 mPa·s
318.15 K, x1 = 0.8844 | – | 1.191 mPa·s
323.15 K, x1 = 0.48 | 1.493 mPa·s and 1.493 mPa·s | –
323.15 K, x1 = 0.72 | 1.294 mPa·s and 1.294 mPa·s | –

N#C[S-].[Na+] + O
viscosity [mPa·s], 101.3 kPa
Settings | 293.15 K | 298.15 K | 303.15 K | 308.15 K | 313.15 K | 318.15 K | 323.15 K
x1 = 0.000641 | 1.046 | 0.938 | 0.839 | 0.759 | 0.689 | 0.629 | 0.577
x1 = 0.0118 | 1.037 | 0.943 | 0.835 | 0.771 | 0.699 | 0.638 | 0.589
x1 = 0.01737 | 1.104 | 0.985 | 0.887 | 0.805 | 0.732 | 0.672 | 0.618
x1 = 0.03707 | 1.261 | 1.128 | 1.016 | 0.92 | 0.834 | 0.766 | 0.706
x1 = 0.05053 | 1.367 | 1.221 | 1.124 | 1.015 | 0.919 | 0.834 | 0.776
x1 = 0.07571 | 1.549 | 1.387 | 1.25 | 1.132 | 1.03 | 0.945 | 0.87
x1 = 0.09639 | 1.81 | 1.613 | 1.442 | 1.308 | 1.19 | 1.091 | 1.003
x1 = 0.1127 | 2.193 | 1.939 | 1.732 | 1.56 | 1.408 | 1.295 | 1.18
x1 = 0.1223 | 2.333 | 2.061 | 1.828 | 1.653 | 1.493 | 1.356 | 1.248
x1 = 0.1239 | 2.378 | 2.099 | 1.873 | 1.679 | 1.52 | 1.384 | 1.27
x1 = 0.1334 | 2.641 | 2.321 | 2.06 | 1.842 | 1.668 | 1.505 | 1.374
x1 = 0.1416 | 2.851 | 2.501 | 2.214 | 1.977 | 1.779 | 1.609 | 1.468
x1 = 0.1532 | 3.196 | 2.792 | 2.461 | 2.191 | 1.963 | 1.777 | 1.619
x1 = 0.1683 | 3.749 | 3.258 | 2.858 | 2.527 | 2.259 | 2.049 | 1.837
x1 = 0.1834 | 4.424 | 3.802 | – | – | – | – | –
